Test results from publication PMC9124820, “In vitro evaluation of fenfluramine and norfenfluramine as victims of drug interactions” (Pharmacology Research & Perspectives, 2022).

Key:
MATE2‐K = biological target: T1, MATE2‐K (Homo sapiens, UniProt Q86VL8); assay: Transporter substrate determination, uptake in HEK293-MATE2K cells; type: in vitro ADME; settings: for Maximum Ratio (uptake in transporter‐expressing cells to empty‐vector control cells): HEK293‐MATE2K, 0.1, 1, 10 µM, threshold ≥2‐fold; for substrate of the transporter: MATE2‐K
T1 construct: host or cells: HEK293
T1 sequence (Q86VL8 1-566 isoform Q86VL8-3): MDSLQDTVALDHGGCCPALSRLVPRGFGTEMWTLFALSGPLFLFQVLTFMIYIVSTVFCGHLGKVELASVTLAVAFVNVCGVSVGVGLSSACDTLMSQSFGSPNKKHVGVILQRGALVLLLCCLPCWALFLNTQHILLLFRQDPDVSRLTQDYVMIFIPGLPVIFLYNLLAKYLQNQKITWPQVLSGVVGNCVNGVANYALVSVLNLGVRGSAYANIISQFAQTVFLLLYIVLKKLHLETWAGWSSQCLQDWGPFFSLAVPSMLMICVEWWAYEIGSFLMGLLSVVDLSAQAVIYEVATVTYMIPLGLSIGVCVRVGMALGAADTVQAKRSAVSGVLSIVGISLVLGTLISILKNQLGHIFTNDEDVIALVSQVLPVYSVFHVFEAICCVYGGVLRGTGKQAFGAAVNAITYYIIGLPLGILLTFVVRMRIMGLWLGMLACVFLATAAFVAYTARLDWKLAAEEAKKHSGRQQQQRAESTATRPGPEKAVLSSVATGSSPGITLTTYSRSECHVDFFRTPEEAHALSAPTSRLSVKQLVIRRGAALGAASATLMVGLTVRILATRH
Experimental: LC‐MS/MS analyses to assess metabolic stability and identify the transporter substrate were performed using an API 4000 QTRAP mass spectrometer (SCIEX, Framingham, MA) with electrospray ionization in positive mode. Chromatography was performed using an Atlantis dC18 analytical column (100 × 2.1 mm, 5 µm; Waters Corporation, Milford, MA). Mobile phases were 0.2% v/v formic acid in water and 0.2% v/v formic acid in acetonitrile. For metabolic stability experiments, FFA and metabolites were eluted at a flow rate of 0.6 mL/min, with a linear gradient of 20%−80% acetonitrile from 0.30−2.0 min. For transporter substrate experiments, the gradient was slightly modified to achieve suitable chromatography. The mass transitions monitored were 232.0 > 159.0 for FFA and 348.0 > 330.0 for 1ʹ‐OH‐midazolam‐d4 internal standard.
FFA and nFFA were evaluated as substrates of the transporters breast cancer resistance protein (BCRP), organic anion transporter (OAT)1, OAT3, organic cation transporter (OCT)2, MATE1, MATE2‐K, and P‐glycoprotein multidrug transporter (P‐gp; also known as MDR1 and ABCB1), according to published methods.[25], [26], [27], [28], [29] Madin‐Darby canine kidney (MDCKII)‐BCRP cells (Netherlands Cancer Institute, Amsterdam, Netherlands) or human embryonic kidney (HEK)293 cells transfected with other transporters (Sekisui Medical Co., Ltd., Tokyo, Japan) were used. Transporter‐transfected and control cells were incubated with FFA or nFFA (0.1, 1, or 10 μM), and the amount of FFA and nFFA accumulated in the cells was measured by LC‐MS/MS as described above. The accumulation of positive control substrates in the presence and absence of an inhibitor served as a positive control for transporter function. […] BCRP substrate determination was made by bi‐directional permeability across MDCKII‐BCRP and control cells cultured on 24‐well transwell plates. Incubation medium containing probe substrate was added. Ten minutes later, transepithelial electrical resistance (TEER) was recorded and cells were preincubated at 37 ± 2°C for 30−60 min before FFA or nFFA or positive control substrate with the solvent control or positive control inhibitor was added to the donor (apical) chamber. […] Samples containing FFA, nFFA, or probe substrate were mixed with internal standard and analyzed by LC‐MS/MS. […] An aliquot was added to 96‐well plate containing scintillation fluid that was analyzed by a MicroBeta^2 scintillation counter (Perkin Elmer, Waltham, MA). Protein concentration was determined by a bicinchoninic acid (BCA) protein assay according to the manufacturer’s protocol (Thermo Fisher Scientific, Waltham, MA). Non‐radiolabeled compounds were resuspended in a 50:50 v/v methanol:water solution containing internal standard and were analyzed by LC‐MS/MS. […]

[1] = Substrate loss and nFFA formation over time in human liver microsomes; type: in vitro ADME
Text: Microsomes from a mixed‐gender pool of 200 non‐transplantable human livers (Sekisui XenoTech, LLC, Kansas City, KS) were characterized as described.[20], [21] Human recombinant CYP450s (rCYP450s) and control membranes from Escherichia coli transfected with empty expression plasmid or plasmid expressing nicotinamide adenine dinucleotide phosphate (hydrogen) (NADPH)‐CYP450 oxidoreductase without CYP450 enzymes were obtained from Cypex, Ltd. Metabolite identification and stability studies used human liver S9 fractions (containing both microsomal and cytosolic fractions of the cell) from pooled human liver (n = 50) and intestine (n = 10), pooled canine liver (n = 8) and intestine (n = 7), and pooled rat liver (n = 454) and intestine (n = 199). All rCYP450 enzymes except rCYP1A2 and rCYP2D6 were expressed with cytochrome b5.
For FFA and nFFA reaction phenotyping experiments, LC‐MS/MS experiments were performed using an API 4000 QTRAP or QTRAP 5500 mass spectrometer (SCIEX) with positive electrospray ionization. Chromatography was performed using an Atlantis dC18 analytical column (100 × 2.1 mm, 5 µm; Waters Corporation). Mobile phases were 0.2% v/v formic acid in water and 0.2% v/v formic acid in methanol. FFA and nFFA were eluted at a flow rate of 0.5 mL/min with a linear gradient of 40%−95% methanol from 0.20−2.1 min. The mass transitions monitored were 232.0>109.0 for FFA, 204.0>159.0 for nFFA, 348.0>330.0 for 1’‐hydroxymidazolam‐d4 internal standard (FFA reaction phenotyping), and 262.0>244.0 for hydroxybupropion‐d6 internal standard (nFFA reaction phenotyping). Analyst Instrument Control and Data Processing software (v. 1.6.1) was used for collecting and integrating data (SCIEX). Calibration curves ranging from 1.25 µM−0.01 µM were used to quantify nFFA. Relative quantitation was used to approximate the amount of FFA test material used.
The line of best‐fit for calibration standards was calculated by weighted (1/x) linear regression based on peak‐area ratios of analyte to the internal standard using Analyst Instrument Control and Data Processing software (version 1.6.1; SCIEX). Mean analyte peak‐area ratio at each time point was normalized to controls at t = 0 min (100%).

[2] = clobazam, and valproate, healthy subjects, cited from earlier work
P‐gp = P‐gp (Homo sapiens, UniProt P08183); assay: Transporter substrate determination, efflux ratio across Caco-2 cells (P-gp)
Chain of P‐gp (P08183 whole entry): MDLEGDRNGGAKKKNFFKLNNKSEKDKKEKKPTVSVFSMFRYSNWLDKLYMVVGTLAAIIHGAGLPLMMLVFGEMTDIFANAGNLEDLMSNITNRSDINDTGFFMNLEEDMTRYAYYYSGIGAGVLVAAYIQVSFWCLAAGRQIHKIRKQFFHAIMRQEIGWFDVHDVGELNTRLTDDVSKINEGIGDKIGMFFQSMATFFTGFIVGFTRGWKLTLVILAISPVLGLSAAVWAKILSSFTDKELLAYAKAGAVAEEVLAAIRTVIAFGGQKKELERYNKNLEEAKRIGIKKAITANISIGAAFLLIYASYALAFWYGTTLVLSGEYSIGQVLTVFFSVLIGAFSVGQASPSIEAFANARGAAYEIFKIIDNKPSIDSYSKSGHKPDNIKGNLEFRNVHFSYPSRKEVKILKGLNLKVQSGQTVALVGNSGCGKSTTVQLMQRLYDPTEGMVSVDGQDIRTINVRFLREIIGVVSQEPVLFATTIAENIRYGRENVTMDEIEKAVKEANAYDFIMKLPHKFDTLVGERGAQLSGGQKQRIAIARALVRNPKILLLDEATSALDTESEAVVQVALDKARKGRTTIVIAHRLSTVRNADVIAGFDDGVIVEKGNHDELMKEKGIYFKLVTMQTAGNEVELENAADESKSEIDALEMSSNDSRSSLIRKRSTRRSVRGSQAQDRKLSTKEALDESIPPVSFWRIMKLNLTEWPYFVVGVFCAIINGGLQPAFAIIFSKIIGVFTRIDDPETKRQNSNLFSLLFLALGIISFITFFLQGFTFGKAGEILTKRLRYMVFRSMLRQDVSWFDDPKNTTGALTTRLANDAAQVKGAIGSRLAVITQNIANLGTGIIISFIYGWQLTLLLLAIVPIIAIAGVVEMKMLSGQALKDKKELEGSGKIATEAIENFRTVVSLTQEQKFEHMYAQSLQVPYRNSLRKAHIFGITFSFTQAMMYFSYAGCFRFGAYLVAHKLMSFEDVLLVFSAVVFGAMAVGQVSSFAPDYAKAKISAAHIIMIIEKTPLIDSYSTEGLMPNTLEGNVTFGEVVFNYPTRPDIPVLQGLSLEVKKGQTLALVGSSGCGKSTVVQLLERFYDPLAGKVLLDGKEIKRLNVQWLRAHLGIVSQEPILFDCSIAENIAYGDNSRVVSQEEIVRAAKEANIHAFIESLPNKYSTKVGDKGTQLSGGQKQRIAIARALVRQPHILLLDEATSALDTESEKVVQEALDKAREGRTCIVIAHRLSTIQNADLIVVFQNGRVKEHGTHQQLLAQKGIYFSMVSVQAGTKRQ

Row | Compound | Maximum Ratio (uptake in transporter‐expressing cells to empty‐vector control cells) (MATE2‐K) | substrate of the transporter (MATE2‐K) | FFA substrate loss ([1]; human liver microsomes 1 mg protein/mL, 1−100 µM FFA, all concentrations and times tested) [%] | substrate remaining in the absence of NADPH ([1]; human liver microsomes, FFA, absence of NADPH) | effect on Cmax, AUC0‐t, and AUC0‐∞ of FFA ([2]; co‐administered with stiripentol) | substrate of the transporter (P‐gp) | nFFA substrate loss in the absence of microsomal protein ([1]; control without microsomal protein) | nFFA substrate loss in the absence of the NADPH‐generating system ([1]; human liver microsomes, no NADPH-generating system) [%] | effect on Cmax and AUC0‐t of nFFA ([2]; FFA co‐administered with stiripentol)
1 | CCNC(C)Cc1cccc(C(F)(F)F)c1 (racemic) [FFA, (RS)‐ethyl (α‐methyl‐3‐trifluoromethylphenethyl)amine] | 1.40 | not substrates | ≤ 7.7 | ~ 100% | increasing | not substrates | – | – | –
2 | CC(N)Cc1cccc(C(F)(F)F)c1.Cl (stereo not drawn) [nFFA, 1‐(3‐(trifluoromethyl)phenyl)propan‐2‐amine hydrochloride] | 1.50 | not substrates | – | – | – | not substrates | no substrate loss detected | 1.2 | reduced
